{"source": "patent US20220054494A1", "about": "“METHODS FOR TREATING BLADDER AND URETHRA DYSFUNCTION AND DISEASE” (University of Pittsburgh - Of the Commonwealth System of …, priority 2019, published 2022)", "key": {"[1]": {"settings": "Jackson et al., J Pharmacol Exp Ther 2016; cited from earlier work"}, "[2]": {"system": "deoxycorticosterone/salt-induced hypertension", "settings": "chronic oral treatment of rats; Jackson et al. 2016; cited from earlier work"}, "aged rats [3]": {"system": "aged rats", "experiment": "Voiding analysis in metabolic cages, aged rats", "assay_type": "in vivo, rat", "settings": "aged rats; intravesical 5 μM forodesine plus 10 μM DEA-NONOate, 3 weeks of treatment; vs aged control rats", "procedure": "Experimental design: Young (3 months of age) and aged (25 to 30 months of age) Fisher 344 rats were used in these experiments. Some of the aged Fisher 344 rats were treated with 8-AG (5 mg kg/day via drinking water) for 1 month.\nVoiding analysis: Rats were placed in metabolic cages for 24 hr (once per week for the duration of the study). Voided urine was collected in cups attached to force displacement transducers (GRASS TECHNOLOGIES®, Warwick, R.I.) connected to a computer running WINDAQ™ data acquisition software (DATAQ™ Instruments Inc., Akron, Ohio). Data were averaged for 24 h, and voiding frequency, total voided volume, and volume per void were analyzed. Voiding frequency was calculated as the number of voiding events per hour during 24 h, and volume per void, which defines bladder capacity, was calculated as an average of the voids occurring during these periods.\nAnimals: Male and female Fisher 344 rats were employed (Charles River; Wilmington, Mass. and the NIA rodent colony). Some rats were young (3 months of age), some were aged (25-30 months of age), and others were aged and treated with oral 8-AG (5 mg/kg/day; 6 weeks). Under isoflurane anesthesia and using an aseptic technique, an incision was made into the lower abdomen and in the scapular area. Sterile PE50 tubing was threaded subcutaneously from the lower abdomen to the scapular area and connected to a one-channel vascular access button (Intech Laboratories, Plymouth Meeting, Pa.). In the abdomen, the tubing was inserted into the bladder and secured with a small purse-string suture. The incisions were closed, and the animals were allowed to recover for 7-10 days before further experimentation. Animals were divided into three groups. A control group of aged rats received daily infusions with 10 μM DEA-NONOate (SIGMA-ALDRICH®, St. Louis, Mo.) in sterile 0.9% saline. A second group received 100 μM 8-AG plus 10 μM DEA-NONOate in 0.9% saline, and a third group received 5 μM forodesine (SIGMA-ALDRICH®) plus 10 μM DEA-NONOate in 0.9% saline. Bladders were instilled via a catheter tether kit (Instech Laboratories) connected to a syringe pump for continuous infusion (rate 200 μl/min; 30 minutes/daily) for 3-6 weeks. The Institutional Animal Care and Use Committee approved all procedures. The investigation conforms to the Guide for the Care and Use of Laboratory Animals published by the US National Institutes of Health (NIH Publication No. 85-23, revised 1996).\nProtocol 1: Young, aged, and 8-AG-treated aged rats were placed in metabolism cages for 24 hr once per week. The light cycle was from 7:00 AM to 7:00 PM, and food and water were provided ad libitum. Voided urine was collected in cups attached to force displacement transducers (GRASS TECHNOLOGIES®, Warwick, R.I.) that were connected to a computer running Windaq data acquisition software (DATAQ® Instruments I2nc., Akron, Ohio). Data were averaged for 24 h and analyzed for 12-h periods during the day (7:00 AM-7:00 PM) and night (7:00 PM-7:00 AM). Voiding frequency, total voided volume, and volume per void were analyzed. Voiding frequency was calculated as the number of voiding events per hour during 24 h and during the 12-h day and 12-h night periods. Volume per void, which defines bladder capacity, was calculated as an average of the voids occurring during these periods.\nVoiding Analysis: Young, aged, and 8-AG-treated aged rats were placed in metabolic cages (24 hr; once per week) for the duration of the study. The light cycle was from 7:00 AM to 7:00 PM, and food and water were provided ad libitum. Voided urine was collected in cups attached to force displacement transducers (Grass Technologies, Warwick, R.I.) connected to a computer (Windaq data acquisition software DATAQ Instruments Inc., Akron, Ohio). Data were averaged for 24 h and analyzed for 12-h periods during the day (7:00 AM-7:00 PM) and night (7:00 PM-7:00 AM). Voiding frequency, total voided volume, and volume per void were analyzed. […]"}, "aged rats [4]": {"system": "aged rats", "experiment": "Voiding analysis in metabolic cages, aged rats", "assay_type": "in vivo, rat", "settings": "aged rats; intravesical 5 μM forodesine plus 10 μM DEA-NONOate, 3 weeks of treatment; vs aged control rats", "remark": "listed apart in the source"}}, "note": "“Also recorded” adds a separate entry of the source.", "data": [{"smiles": "Nc1nc2c(nc(N)n2[C@@H]2O[C@H](CO)[C@@H](O)[C@H]2O)c(=O)[nH]1", "note": "[8-aminoguanosine, 8-Aminoguanosine, reference compound]", "values": [{"measurement": "diuresis", "setting": "[1]", "value": "induce"}, {"measurement": "glucosuria", "setting": "[1]", "value": "induce"}, {"measurement": "natriuresis", "setting": "[1]", "value": "induce"}, {"measurement": "potassium excretion", "setting": "[1]", "value": "reduce"}, {"measurement": "development of deoxycorticosterone/salt-induced hypertension", "setting": "[2]", "value": "attenuate"}]}, {"smiles": "O=c1[nH]cnc2c([C@@H]3N[C@H](CO)[C@@H](O)[C@H]3O)c[nH]c12", "note": "[forodesine, 7-[(2S,3S,4R,5R)-3,4-dihydroxy-5-(hydroxymethyl)pyrrolidin-2-yl]-3H,4H,5H-pyrrolo[3,2-d]pyrimidin-4-one, reference compound]", "values": [{"measurement": "voided volume", "setting": "aged rats [3]", "value": "significant improvement; also recorded: significantly attenuates"}, {"measurement": "voiding frequency", "setting": "aged rats [3]", "value": "significant improvement; also recorded: significantly attenuates"}, {"measurement": "inter-contraction interval", "setting": "aged rats [4]", "value": "significant improvement; also recorded: significantly attenuates"}]}]}
